Test results published in patent publication US20240224991A9, “NANO-DISPERSION COMPRISING CELLULOSE NANOCRYSTAL AS PESTICIDE/FUNGICIDE CARRIERS FOR AGRICULTURE AND AQUACULTURE” (priority 2022, published 2024).

Tested on: mealworms
Assay: Pest mortality test, mealworms on sprayed spinach leaves
Format: in vivo, mealworms (larval form of the mealworm beetles)
Settings: 100 ppm DEL, in 2 hours, FIG. 3C
Experimental: Deltamethrin and permethrin/CNC nano-dispersions with agrochemical and CNC mass ratio of 1:100 were prepared according to the said process in example 5, and they are designated as CNC-DEL and CNC-PER, respectively. The resulting nano-dispersions were diluted to 0.1 wt %, 0.5 wt %, 1.0 wt % and 1.5 wt %, where the corresponding active ingredient concentration was around 10 ppm, 50 ppm, 100 ppm and 150 ppm. To perform the pest control test, fresh spinach leaves were spread on a petri dish (10 cm diameter), then 2 mL of the dispersion was sprayed on top (1 mL) and bottom (1 mL) of the leave surface, and 20 active worms were placed on top of the leaves. The survival rate of the works was recorded at set time intervals. In comparison, the pest control efficiency of 1 wt % CNC (0 ppm DEL) and DEL control (100 ppm DEL) were also investigated and compared with 1.0 wt % CNC-DEL (100 ppm DEL). In addition, the pest control efficiency of CNC-PER was compared with the commercial EC pesticide ORTHO® HOME DEFENSE® MAX™ under the same PER dosage.
Both permethrin and deltamethrin are wide spectrum pesticides that belong to synthetic pyrethroids pesticides. Their mode of action is mainly based on contact and stomach toxicity. The pest control efficiency of CNC-DEL and CNC-PER nano-dispersions were evaluated with two model worms, mealworms and waxworms. […]

For `CC1(C)[C@H](C(=O)O[C@H](C#N)c2cccc(Oc3ccccc3)c2)[C@@H]1C=C(Br)Br` [DEL control, Deltamethrin], the mortality at 100 ppm was 30%.
